Measured values taken from patent US20170080128A1, “NOVEL ENDOTRACHEAL TUBE FOR THE REDUCTION OF INTUBATION-RELATED COMPLICATION IN NEONATES AND BABIES” (Brigham Young University, priority 2015, published 2017).

System: tracheal mucosal integrity
Test: Tracheal mucosal integrity of intubated pre-term lambs (histology)
Type: in vivo
From the text: FIG. 2 compares histological images of tracheal tissue of a pre-term lamb intubated with an ETT not coated with a CSA-containing coating to tracheal tissue of a pre-term lamb intubated with an ETT coated with a CSA-containing coating.
Pre-term lambs were intubated using ETTs including a coating having CSA-131 and tracheal mucosal integrity of the lambs was compared to the tracheal mucosal integrity of a control group (intubated with uncoated ETTs). […] FIG. 2 illustrates the histological appearance of tracheas of the premature lambs that were intubated for three days. […] An area of denuded epithelium (arrowhead), and accumulation of white blood cells (arrow) are highlighted.

## CCCCCCCCCCCCNCCC[C@@H](C)[C@H]1CC[C@H]2[C@@H]3[C@H](OCCCN)C[C@@H]4C[C@H](OCCCN)CC[C@]4(C)[C@H]3C[C@H](OCCCN)[C@]12C.Cl.Cl.Cl.Cl [CSA-131]
ETT coated with a CSA-131 containing coating, intubated for three days
  Histological appearance of trachea (FIG. 2, image (b)): the epithelium is intact and the subjacent connective tissue region is not inflamed
ETTs including a coating having CSA-131
  Tracheal mucosal integrity compared to control group (uncoated ETTs): markedly improved mucosal integrity
